One data set concerns E. coli O157:H7. The data set can be described thus: Time-kill assay, Apo6619 with Rifampin. Format: cell-based. The settings on record: 1.5×MIC Apo6619 in combination with 0.75×MIC Rifampin; 0, 5 and 24 hours. The procedure: Reductions in colony forming units (CFU)/mL were determined over time (time-kill assay) after exposure to VK28 and deferiprone (DFP), the two iron chelators that performed best in MIC assays when compared to controls. To better represent the iron content found in the human body, MIC and time-kill assays were also determined in minimal media and tissue culture media. Time-Kill assays were performed as previously described in G. P. Neupane et al., “In vitro time-kill activities of ciprofloxacin alone and in combination with the iron chelator deferasirox against Vibrio vulnificus,” European Journal of Clinical Microbiology and Infectious Diseases, 407-410 (2010); and R. L. White, et al., “Comparison of Three Different In Vitro Methods of Detecting synergy: Time-Kill, Checkerboard, and E test,” Journal of Antimicrobial Agents and Chemotherapy, 1914-1918 (1996). Initial inocula, for example 1×10^6 CFU/mL or 1×10^7 CFU/mL were challenged with iron chelator with and/or without an antibiotic. […] Time-kill results were analyzed by determining the change in log 10 numbers of CFU/ml at 0, 6, and 24 h, compared to counts at 0 h. […]
In this example, time-kill assays were performed as described in Example 9 using Apo6619 as the iron chelator in combination with Rifampin against E. coli O157:H7. […] Time-kill results were analyzed by determining the change in log 10 numbers of CFU/mL at 0, 5 and 24 hours.

The subject of data set [1] is Methicillin-Resistant Staphylococcus aureus (MRSA). Briefly: Growth (OD600) of MDR bacteria with VK28 in low-iron M9 media. Format: cell-based. The note with it: both 100 μM and 200 μM VK28. As to the method:
(§1) Isolates of Extended Spectrum Beta-Lactamase (ESBL) Escherichia coli, Klebsiella pneumoniae, Pseudomonas aeruginosa, and Methicillin-Resistant Staphylococcus aureus (MRSA) were challenged with either 0 μM, 100 μM or 200 μM VK28 in low-iron M9 media after 4 hr of growth. Growth was estimated by absorbance at 600 nm at 24 hr post inoculation.

The subject of a further data set is Pseudomonas aeruginosa. The data set is described as above. Format: cell-based. The note with it: 200 μM VK28. The procedure: as §1
The test system of another data set is Klebsiella pneumoniae. Described as above. Format: cell-based. The settings on record: 200 μM VK28. The procedure: as §1
The test system of data set [2] is Extended Spectrum Beta-Lactamase (ESBL) Escherichia coli. The data set is described as above. The note with it: 200 μM VK28. Type of data set: cell-based. As to the method:
as §1

The test system of the next data set is A. baumannii. The data set can be described thus: Growth (OD600) with VK28 added at different times post-inoculation. Format: cell-based. The note with it: 200 μM VK28 added at 0, 4, 8, 12, 16, 20 hr post-inoculation; low-iron M9. The procedure:
A. baumannii was grown in low-iron M9 media and challenged with 200 μM VK28 at 0 hr (▪), 4 hr (▴), 8 hr (▪), 12 hr (▪), 16 hr (•), and 20 hr (▪) post-inoculation. Growth was estimated by absorbance at 600 nm every 4 hr for 24 hr.

A further data set relates to Klebsiella pneumonia. Briefly: Growth (OD600) with VK28 in M9 media with magnesium / calcium. The settings on record: 50-200 μg/ml VK28, 24 hours. Format: cell-based. As to the method: Klebsiella pneumonia was grown in M9 media containing 2 mM MgSO4 for 24 hours in the presence of 0 μg/ml, 50 μg/ml, 100 μg/ml, or 200 μg/ml VK28. The OD600 was measured at 0, 4, and 24 hour and the results are shown in the time-kill curves of FIG. 16.
Klebsiella pneumonia was grown similar to as described in Example 19 in M9 media containing 2 mM MgSO4 and 1.34 mM CaCl2 for 24 hours in the presence of 0 μg/ml, 50 μg/ml, 100 μg/ml, or 200 μg/ml VK28. The OD600 was measured at 24 hour and the results are shown in the bar graph of FIG. 17.

The next data set deals with AB5711. The data set can be described thus: Effect of VK28 on the activity of antibiotics (OD600). Type of data set: cell-based, A. baumannii. The settings on record: 50 μM VK28; 30 antibiotics. The procedure:
In some aspects of the present invention, one or more iron chelators (for example Compound 4, VK28, or its analogs or derivatives, or Apo6619) may be used in a composition or method for treating a bacterial infection with one or more antibiotics. […] Methods and compositions comprising one or more iron chelators with one or more of each of the foregoing antibiotics are hereby disclosed.
In this example, culture of AB5711 was grown overnight in LB media at 37° C. and diluted 1:100 into Media A. Cells were allowed to grow for 4 hours at 37 in 96-well plates and were then treated with antibiotics with or without 50 μM VK28. Cells were then allowed to shake for an additional 20 hours, and OD600 measurements were taken.

A further data set has as its system S. aureus. The data set can be described thus: MIC in RPMI1640 media (Table 2). Format: cell-based. The settings on record: Staphylococcus aureus. The procedure:
Individual MICs were determined following the microdilution method recommended by CLSI in cationic-adjusted Mueller-Hinton Broth (CAMHB), or M9 media. […] Tests were performed in triplicate. MIC of iron chelators were determined for noscomial ESKAPE pathogens.
This media is closer to the iron levels in the human body. MICs are in ug/mL.

The conditions of data set [3]: mouse; systemically/intravenously; cited from earlier work.

SMILES strings stand for the structures. “Also recorded” adds a separate entry of the source. Where two headings read alike, the source gives them in different places.

As to `CNC(=O)c1c(O)c(=O)cc(C)n1C1CC1` [Apo6619, 1-cyclopropyl-3-hydroxy-6-methyl-4-oxo-1,4-dihydro-pyridine-2-carboxylic acid methylamide], in the data set with E. coli O157:H7, the time kill curves result is on record as “combinational effect”.

`OCCN1CCN(Cc2ccc(O)c3ncccc23)CC1` [VK28, 5-(4-(2-hydroxyethyl)piperazin-1-ylmethyl)-8-hydroxyquinoline]: the “OD600 at 24 hr post inoculation” value (in [1]; with Pseudomonas aeruginosa) was “significantly reduced” throughout. Moreover, the “growth (OD600) at 24 hr post inoculation” value (with Klebsiella pneumoniae; in data set [2]) was “reduced” each time. In addition, the “continued multiplication of bacteria (OD600)” value in the data set with A. baumannii is given as “effective to halt the continued multiplication of bacteria”. Further, the “inhibition of growth (OD600)” value in the data set with Klebsiella pneumonia (M9 with 2 mM MgSO4) was “inhibition of growth is not reduced in the presence of magnesium”; in the data set with Klebsiella pneumonia (M9 with 2 mM MgSO4 and 1.34 mM CaCl2), “inhibition of growth is not reduced in the presence of magnesium and calcium”. In the data set with AB5711, the “inhibition of the activity of antibiotics by VK28” value is on record as “only inhibited the activity of one antibiotic, namely thiamphenicol; also recorded: not shown to inhibit the activity of the antibiotics with the exception of Thiaphenicol”. The MIC (commonly the lowest concentration that inhibits growth of the organism) with S. aureus (ATCC25923, ATCC 25923, read-out: MIC of Iron Chelators) is 32 µg/mL; in the data set on S. aureus (ATCC 43300 (MRSA), read-out: MIC of Iron Chelators) it was 16 µg/mL. Also, the dose showing toxicity in data set [3] was 30 mg/kg.
